Data on 21 compounds can be found in PubChem BioAssay AID330 (DTP/NCI, 2004).

Where “and” joins values, the source holds several entries; their conditions need not be identical. Equal values may be shown once. Toxic doses and inconclusive results are not listed.

The subject of this experiment is P388 leukemia ip, CD2F1 mice, survival T/C. Description: NCI In Vivo Anticancer Drug Screen. Data for tumor model P388 Leukemia (intraperitoneal) in CD2F1 (CDF1) mice. Particulars: endpoint: median survival time, higher = longer survival. An outline of the steps: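 Mice carrying the transplanted tumor received test compound or vehicle. Survival was recorded in each group, and the value is the treated-group measurement divided by that of the vehicle-treated control group.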

[1] abbreviates: dose: 50.0 mg/kg/injection, schedule: Q01DX009 (ip), vehicle: Klucel (hydroxypropylcellulose) (HPC).
The mark [2] stands for this setting: dose: 100.0 mg/kg/injection, schedule: Q01DX009 (ip), vehicle: Klucel (hydroxypropylcellulose) (HPC).
Setting [3] is: dose: 200.0 mg/kg/injection, schedule: Q01DX009 (ip), vehicle: Klucel (hydroxypropylcellulose) (HPC).
The mark [4] stands for this setting: dose: 100.0 mg/kg/injection, schedule: Q04DX002 (ip), vehicle: saline with Tween-80.
Where [5] appears, read: dose: 200.0 mg/kg/injection, schedule: Q04DX002 (ip), vehicle: saline with Tween-80.
Setting [6] is: dose: 100.0 mg/kg/injection, schedule: Q04DX003 (ip), vehicle: saline.
Setting [7] is: dose: 200.0 mg/kg/injection, schedule: Q04DX003 (ip), vehicle: saline.

`[CH3][Sn]([CH3])([Cl])[CH2]CC[CH2][Ge]([Cl])([Cl])[Cl]`: the T/C (dose: 0.78 mg/kg/injection, schedule: Q01DX009 (ip), vehicle: saline) is 114 % of control and the T/C (dose: 1.56 mg/kg/injection, schedule: Q01DX009 (ip), vehicle: saline) is 119 % of control.

In the case of `CSc1nc(=O)[nH]nc1SCc1ccccc1`, the T/C reads like this: under setting [1], 114 % of control and 120 % of control; under setting [2], 101 % of control and 111 % of control; under setting [3], 108 % of control and 120 % of control.

Regarding `CN(C)C1C(=O)C(C(=O)NCN2CCCC2)=C(O)C2(O)C(=O)C3=C(O)c4c(O)cccc4C(C)(O)C3CC12` (stereo not given), the T/C (dose: 50.0 mg/kg/injection, schedule: Q01DX005 (ip), vehicle: saline with Tween-80) was 96 % of control; the T/C (dose: 100.0 mg/kg/injection, schedule: Q01DX005 (ip), vehicle: saline with Tween-80) is 95 % of control; the T/C (dose: 200.0 mg/kg/injection, schedule: Q01DX005 (ip), vehicle: saline with Tween-80) was 97 % of control.

As for `Cc1ccc(S(=O)(=O)OCCOc2ccc3ccccc3c2-c2c(OCCOc3ccc4ccccc4c3-c3c(OCCOS(=O)(=O)c4ccc(C)cc4)ccc4ccccc34)ccc3ccccc23)cc1`, the T/C runs as follows: (dose: 100.0 mg/kg/injection, schedule: Q01DX001 (ip), vehicle: saline with Tween-80) 101 % of control; (dose: 200.0 mg/kg/injection, schedule: Q01DX001 (ip), vehicle: saline with Tween-80) 97 % of control; (dose: 400.0 mg/kg/injection, schedule: Q01DX001 (ip), vehicle: saline with Tween-80) 97 % of control.

In the case of `CCN1C(=O)C(=NO)C(=O)N(CC)C1=S.CCN1C(=O)C(=N[O-])C(=O)N(CC)C1=S.CCN1C(=O)C(=N[O-])C(=O)N(CC)C1=S.[Fe+3]`, the T/C by setting is: under setting [4], 94 % of control; under setting [5], 102 % of control.

With `COC(=O)C12c3ccccc3C3C(c4ccccc41)C32` (stereo not given), the T/C was 102 % of control under setting [6] and 96 % of control under setting [7].

For `COc1ccc(C2NC(c3ccc(OC)cc3)C3CCCC2C3=O)cc1` (stereo not given), the T/C under setting [6] is 102 % of control; the T/C under setting [7] was 93 % of control; the T/C (dose: 400.0 mg/kg/injection, schedule: Q04DX003 (ip), vehicle: saline) was 98 % of control.

Turning to `CCc1cccc(CC)c1N1C(=O)C=CC1=O`, the T/C was 104 % of control (dose: 0.5 mg/kg/injection, schedule: Q01DX009 (ip), vehicle: Klucel (hydroxypropylcellulose) (HPC)); 99 % of control (dose: 1.0 mg/kg/injection, schedule: Q01DX009 (ip), vehicle: Klucel (hydroxypropylcellulose) (HPC)); 100 % of control (dose: 2.0 mg/kg/injection, schedule: Q01DX009 (ip), vehicle: Klucel (hydroxypropylcellulose) (HPC)); 105 % of control (dose: 4.0 mg/kg/injection, schedule: Q01DX009 (ip), vehicle: Klucel (hydroxypropylcellulose) (HPC)); 101 % of control (dose: 8.0 mg/kg/injection, schedule: Q01DX009 (ip), vehicle: Klucel (hydroxypropylcellulose) (HPC)); 96 % of control (dose: 16.0 mg/kg/injection, schedule: Q01DX009 (ip), vehicle: Klucel (hydroxypropylcellulose) (HPC)).

For the compound `CC(C)(C)c1ccc(C(=O)Nc2ccc(S(N)(=O)=O)cc2)cc1`, the T/C under setting [1] is 100 % of control, the T/C under setting [2] is 100 % of control and the T/C under setting [3] is 101 % of control.

On to `CC(=O)NC1=CC(=Nc2ccc(N(C)C)cc2)C=CC1=O`, for which the T/C reads like this: (dose: 3.12 mg/kg/injection, schedule: Q01DX005 (ip), vehicle: saline) 114 % of control; (dose: 6.25 mg/kg/injection, schedule: Q01DX005 (ip), vehicle: saline) 112 % of control; (dose: 12.5 mg/kg/injection, schedule: Q01DX005 (ip), vehicle: saline) 102 % of control.

As for `C[CH2][Sn]([CH2]C)([O]P(=O)(C[Si](C)(C)C)c1ccccc1)[O]P(=O)(C[Si](C)(C)C)c1ccccc1` (stereo not given), the T/C by setting is: (dose: 30.0 mg/kg/injection, schedule: Q01DX005 (ip), vehicle: saline with Tween-80) 115 % of control; (dose: 120.0 mg/kg/injection, schedule: Q01DX005 (ip), vehicle: saline with Tween-80) 151 % of control.

As to `CCCCCCC(/C=C/c1ccc(Cl)c(Cl)c1)=N\Nc1c(Cl)cccc1Cl`, the T/C was 91 % of control under setting [1], 91 % of control under setting [2] and 87 % of control under setting [3].

As for `N=c1c2c(C(N)=O)cn(C3OC(CO)C(O)C3O)c2ncn1N` (stereo not given), the T/C (dose: 50.0 mg/kg/injection, schedule: Q01DX005 (ip), vehicle: water) is 166 % of control.

Regarding `O=C1C=C(Sc2ccc3ccccc3c2)C(=O)c2ccccc21`, the T/C was 101 % of control (dose: 3.13 mg/kg/injection, schedule: Q01DX009 (ip), vehicle: saline with Tween-80); 105 % of control (dose: 6.25 mg/kg/injection, schedule: Q01DX009 (ip), vehicle: saline with Tween-80); 104 % of control (dose: 12.5 mg/kg/injection, schedule: Q01DX009 (ip), vehicle: saline with Tween-80); 95 % of control (dose: 25.0 mg/kg/injection, schedule: Q01DX009 (ip), vehicle: saline with Tween-80); 104 % of control (dose: 50.0 mg/kg/injection, schedule: Q01DX009 (ip), vehicle: saline with Tween-80).

On to `CC1(CCl)CC1(Cl)Cl` (stereo not given), for which the T/C is 103 % of control (dose: 50.0 mg/kg/injection, schedule: Q01DX005 (ip), vehicle: saline); 103 % of control (dose: 100.0 mg/kg/injection, schedule: Q01DX005 (ip), vehicle: saline); 104 % of control (dose: 200.0 mg/kg/injection, schedule: Q01DX005 (ip), vehicle: saline).

In the case of `CC1=C(C#N)C(=O)NC1(C)O` (stereo not given), the T/C is 98 % of control and 95 % of control (dose: 50.0 mg/kg/injection, schedule: Q01DX005 (ip), vehicle: Klucel (hydroxypropylcellulose) (HPC)); 100 % of control (dose: 100.0 mg/kg/injection, schedule: Q01DX005 (ip), vehicle: Klucel (hydroxypropylcellulose) (HPC)); 100 % of control and 101 % of control (dose: 200.0 mg/kg/injection, schedule: Q01DX005 (ip), vehicle: Klucel (hydroxypropylcellulose) (HPC)).

`O=c1c2cc3ccccc3cc2c(=O)n2n1CC=CC2`: the T/C was 97 % of control under setting [1] and 90 % of control under setting [2].

Regarding `c1ccc(-c2ccccc2C2=NC2)c(C2=NC2)c1`, the T/C reads like this: (dose: 25.0 mg/kg/injection, schedule: Q04DX002 (ip), vehicle: saline with Tween-80) 99 % of control; (dose: 50.0 mg/kg/injection, schedule: Q04DX002 (ip), vehicle: saline with Tween-80) 100 % of control; under setting [4], 99 % of control and 94 % of control.

As for `CCOC(=O)c1cnc2cc3c(cc2c1Nc1ccccc1)OCO3`, the T/C (dose: 60.0 mg/kg/injection, schedule: Q01DX005 (ip), vehicle: Klucel (hydroxypropylcellulose) (HPC)) was 94 % of control; the T/C (dose: 120.0 mg/kg/injection, schedule: Q01DX005 (ip), vehicle: Klucel (hydroxypropylcellulose) (HPC)) is 99 % of control; the T/C (dose: 240.0 mg/kg/injection, schedule: Q01DX005 (ip), vehicle: Klucel (hydroxypropylcellulose) (HPC)) is 95 % of control.

As for `CCOC(=O)C(c1ccccc1)C(CC=C(C)C)(C(C)=O)C(=O)OC` (stereo not given), the T/C was 103 % of control under setting [4]; 103 % of control under setting [5]; 105 % of control (dose: 400.0 mg/kg/injection, schedule: Q04DX002 (ip), vehicle: saline with Tween-80).

As to `COc1cc(/C=N/O)c(SC)cc1OC`, the T/C was 110 % of control (dose: 100.0 mg/kg/injection, schedule: Q04DX002 (ip), vehicle: Klucel (hydroxypropylcellulose) (HPC)) and 111 % of control (dose: 200.0 mg/kg/injection, schedule: Q04DX002 (ip), vehicle: Klucel (hydroxypropylcellulose) (HPC)).
